Data published in US20160256449A1, “H3 RECEPTOR ANTAGONIST FOR USE IN THE TREATMENT OF ALZHEIMER'S DISEASE” (SANOFI, priority 2013, published 2016).

How the values were obtained:
Format in all cases: in vivo, human
[1] = test system: patients with mild to moderate Alzheimer's disease; assay: clinical study, ADAS-Cog 11 items; details: mITT
Source text: “ADAS-Cog” as used herein, refers to a sensitive and standardized neuropsychological test battery to assess cognitive dysfunction characteristics of patients with AD including memory and orientation, language (aphasia), motor skills (praxis), attention and concentration. The original, standard version consists of 11 items. The total score of these 11-item scores ranges from 0-70 with higher scores indicating greater cognitive impairment. More recently, two additional tasks have been added in a new 13-item version of the scale proposed for patients with mild disease: Delayed Word Recall and Concentration/Distractibility.
A randomized, double-blind, parallel-group, placebo-controlled clinical trial was performed to study the effect on cognitive performance, safety, and tolerability of 2-(cyclohexylmethyl)-N-{2-[(2S)-1-methylpyrrolidin-2-yl]ethyl}-1,2,3,4-tetrahydroisoquinoline-7-sulfonamide difumarate monohydrate as adjunct treatment to donepezil. […]
Patients were randomized to receive 0.5 mg, 2 mg, or 5 mg of 2-(cyclohexylmethyl)-N-{2-[(2S)-1-methylpyrrolidin-2-yl]ethyl}-1,2,3,4-tetrahydroisoquinoline-7-sulfonamide difumarate monohydrate (measured in base form), or matching placebo once a day, with donepezil (5 mg or 10 mg in the form the patient took prior to enrollment), for 24 weeks, with or without food. […]

[2] = test system: patients with mild to moderate Alzheimer's disease; assay: clinical study, CDR-S computerized assessment
Description: “CDR-S” as used herein, refers to the Cognitive Drug Research computerized assessment system which tests various aspects of human cognitive function, memory, and attention.
(§1) A randomized, double-blind, parallel-group, placebo-controlled clinical trial was performed to study the effect on cognitive performance, safety, and tolerability of 2-(cyclohexylmethyl)-N-{2-[(2S)-1-methylpyrrolidin-2-yl]ethyl}-1,2,3,4-tetrahydroisoquinoline-7-sulfonamide difumarate monohydrate as adjunct treatment to donepezil.
(§2) More specifically, patients with mild to moderate Alzheimer's disease on stable donepezil therapy were randomized to receive doses of 0.5 mg, 2 mg, or 5 mg/day of 2-(cyclohexylmethyl)-N-{2-[(2S)-1-methylpyrrolidin-2-yl]ethyl}-1,2,3,4-tetrahydroisoquinoline-7-sulfonamide difumarate monohydrate or placebo for 24 weeks, with a 10 week follow-up period.
(§3) Patients were randomized to receive 0.5 mg, 2 mg, or 5 mg of 2-(cyclohexylmethyl)-N-{2-[(2S)-1-methylpyrrolidin-2-yl]ethyl}-1,2,3,4-tetrahydroisoquinoline-7-sulfonamide difumarate monohydrate (measured in base form), or matching placebo once a day, with donepezil (5 mg or 10 mg in the form the patient took prior to enrollment), for 24 weeks, with or without food.
Change from baseline to Week 24 in the five factors from the Cognitive Drug Research computerized assessment system (CDR-S): power of attention, continuity of attention, quality of working memory, cognitive reaction time, and speed of memory;
Change from baseline to Week 8 and 24 in the Cognitive Drug Research computerized assessment system (CDR-S) episodic memory;

[3] = test system: patients with mild to moderate Alzheimer's disease; assay: clinical study, actigraphy (Actiwatch); details: for Interdaily variability, Ch from bl FUP / Intradaily stability, Ch from bl FUP / Mean awakening duration, Ch from bl FUP / Number of awakenings, Ch from bl FUP / Relative amplitude, Ch from bl FUP / Sleep efficiency, Ch from bl FUP / Sleep fragmentation, Ch from bl FUP / Total sleep time, Ch from bl FUP / Wake after sleep onset, Ch from bl FUP: follow-up
Source text: Actigraphy as used herein refers to an assessment of activity measured by an Actiwatch®, which was worn day and night by the patient during 4 periods of 15 days: before randomization, immediately after randomization, around week 12 and after treatment discontinuation around week 34 during the clinical study described in Example 2. The watch measures movements translating into assessment of sleep quality (number and duration of awakenings, wake after sleep onset or WASO, fragmentation index, sleep efficiency, total sleep period, total sleep time) and circadian rhythms ([…], relative amplitude).
as §1, §2, §3

- Interdaily variability, Ch from bl W2 ([3]; 0.5 mg/day with donepezil): 0.01
- Interdaily variability, Ch from bl W12 ([3]; 0.5 mg/day with donepezil): 0.04
- Intradaily stability, Ch from bl W2 ([3]; 0.5 mg/day with donepezil): −0.03
- Intradaily stability, Ch from bl W12 ([3]; 0.5 mg/day with donepezil): −0.06
- Mean awakening duration, Ch from bl W2 ([3]; 0.5 mg/day with donepezil): 0.08 min
- Mean awakening duration, Ch from bl W12 ([3]; 0.5 mg/day with donepezil): 0.22 min
- Mean awakening duration, significance (unlabelled line under Ch from bl W12) ([3]; 0.5 mg/day with donepezil): 0.0109
- Number of awakenings, Ch from bl W2 ([3]; 0.5 mg/day with donepezil): −0.37
- Number of awakenings, Ch from bl W12 ([3]; 0.5 mg/day with donepezil): −0.55
- Relative amplitude, Ch from bl W2 ([3]; 0.5 mg/day with donepezil): 0.00
- Relative amplitude, Ch from bl W12 ([3]; 0.5 mg/day with donepezil): 0.02
- Sleep efficiency, Ch from bl W2 ([3]; 0.5 mg/day with donepezil): −0.05%
- Sleep efficiency, Ch from bl W12 ([3]; 0.5 mg/day with donepezil): −0.53%
- Sleep efficiency, significance (unlabelled line under Ch from bl W12) ([3]; 0.5 mg/day with donepezil): 0.0121
- Sleep fragmentation, Ch from bl W2 ([3]; 0.5 mg/day with donepezil): 0.91
- Sleep fragmentation, Ch from bl W12 ([3]; 0.5 mg/day with donepezil): 0.29
- Total sleep time, Ch from bl W2 ([3]; 0.5 mg/day with donepezil): −0.03 h.min
- Total sleep time, Ch from bl W12 ([3]; 0.5 mg/day with donepezil): 0.05 h.min
- Wake after sleep onset, Ch from bl W2 ([3]; 0.5 mg/day with donepezil): 0.02 h.min
- Wake after sleep onset, Ch from bl W12 ([3]; 0.5 mg/day with donepezil): 0.03 h.min
- Interdaily variability, Ch from bl FUP ([3]; 0.5 mg/day with donepezil): −0.02
- Intradaily stability, Ch from bl FUP ([3]; 0.5 mg/day with donepezil): 0.06
- Mean awakening duration, Ch from bl FUP ([3]; 0.5 mg/day with donepezil): 0.01 min
- Number of awakenings, Ch from bl FUP ([3]; 0.5 mg/day with donepezil): 1.34
- Relative amplitude, Ch from bl FUP ([3]; 0.5 mg/day with donepezil): −0.01
- Sleep efficiency, Ch from bl FUP ([3]; 0.5 mg/day with donepezil): −0.69%
- Sleep fragmentation, Ch from bl FUP ([3]; 0.5 mg/day with donepezil): 0.98
- Total sleep time, Ch from bl FUP ([3]; 0.5 mg/day with donepezil): 0.24 h.min
- Wake after sleep onset, Ch from bl FUP ([3]; 0.5 mg/day with donepezil): 0.04 h.min
- Interdaily variability, Ch from bl W2 ([3]; 2 mg/day with donepezil): −0.01
- Interdaily variability, Ch from bl W12 ([3]; 2 mg/day with donepezil): −0.03
- Intradaily stability, Ch from bl W2 ([3]; 2 mg/day with donepezil): 0.02
- Intradaily stability, Ch from bl W12 ([3]; 2 mg/day with donepezil): 0.01
- Mean awakening duration, Ch from bl W2 ([3]; 2 mg/day with donepezil): 0.14 min
- Mean awakening duration, Ch from bl W12 ([3]; 2 mg/day with donepezil): 0.40 min
- Mean awakening duration, significance (unlabelled line under Ch from bl W12) ([3]; 2 mg/day with donepezil): <.0001
- Number of awakenings, Ch from bl W2 ([3]; 2 mg/day with donepezil): 0.51
- Number of awakenings, Ch from bl W12 ([3]; 2 mg/day with donepezil): 1.26
- Relative amplitude, Ch from bl W2 ([3]; 2 mg/day with donepezil): −0.03
- Relative amplitude, Ch from bl W12 ([3]; 2 mg/day with donepezil): −0.06
- Relative amplitude, significance (unlabelled line under Ch from bl W12) ([3]; 2 mg/day with donepezil): <.0001
- Sleep efficiency, Ch from bl W2 ([3]; 2 mg/day with donepezil): −1.65%
- Sleep efficiency, Ch from bl W12 ([3]; 2 mg/day with donepezil): −2.58%
- Sleep efficiency, significance (unlabelled line under Ch from bl W12) ([3]; 2 mg/day with donepezil): <.0001
- Sleep fragmentation, Ch from bl W2 ([3]; 2 mg/day with donepezil): 2.82
- Sleep fragmentation, Ch from bl W12 ([3]; 2 mg/day with donepezil): 6.31
- Sleep fragmentation, significance (unlabelled line under Ch from bl W12) ([3]; 2 mg/day with donepezil): <.0001
- Total sleep time, Ch from bl W2 ([3]; 2 mg/day with donepezil): −0.1 h.min
- Total sleep time, Ch from bl W12 ([3]; 2 mg/day with donepezil): −0.2 h.min
- Wake after sleep onset, Ch from bl W2 ([3]; 2 mg/day with donepezil): 0.07 h.min
- Wake after sleep onset, Ch from bl W12 ([3]; 2 mg/day with donepezil): 0.18 h.min
- Wake after sleep onset, significance (unlabelled line under Ch from bl W12) ([3]; 2 mg/day with donepezil): <.0001
- Interdaily variability, Ch from bl FUP ([3]; 2 mg/day with donepezil): −0.01
- Intradaily stability, Ch from bl FUP ([3]; 2 mg/day with donepezil): 0.04
- Mean awakening duration, Ch from bl FUP ([3]; 2 mg/day with donepezil): 0.34 min
- Number of awakenings, Ch from bl FUP ([3]; 2 mg/day with donepezil): 1.27
- Relative amplitude, Ch from bl FUP ([3]; 2 mg/day with donepezil): −0.07
- Sleep efficiency, Ch from bl FUP ([3]; 2 mg/day with donepezil): −3.97%
- Sleep fragmentation, Ch from bl FUP ([3]; 2 mg/day with donepezil): 3.93
- Total sleep time, Ch from bl FUP ([3]; 2 mg/day with donepezil): −0.25 h.min
- Wake after sleep onset, Ch from bl FUP ([3]; 2 mg/day with donepezil): 0.13 h.min
- Total sleep time, significance (unlabelled line under Ch from bl W12) ([3]; 2 mg/day with donepezil, NS = non-significant): 0.06)
- total sleep time ([3]; 5 mg): No modification
- total sleep time and WASO after treatment discontinuation (FUP) ([3]; 5 mg group): improved
- Interdaily variability, Ch from bl W2 ([3]; 5 mg/day with donepezil): 0.00
- Interdaily variability, Ch from bl W12 ([3]; 5 mg/day with donepezil): −0.04
- Intradaily stability, Ch from bl W2 ([3]; 5 mg/day with donepezil): −0.05
- Intradaily stability, Ch from bl W12 ([3]; 5 mg/day with donepezil): 0.02
- Mean awakening duration, Ch from bl W2 ([3]; 5 mg/day with donepezil): 0.30 min
- Mean awakening duration, Ch from bl W12 ([3]; 5 mg/day with donepezil): 0.38 min
- Mean awakening duration, significance (unlabelled line under Ch from bl W12) ([3]; 5 mg/day with donepezil): <.0001
- Number of awakenings, Ch from bl W2 ([3]; 5 mg/day with donepezil): −0.52
- Number of awakenings, Ch from bl W12 ([3]; 5 mg/day with donepezil): 0.84
- Relative amplitude, Ch from bl W2 ([3]; 5 mg/day with donepezil): −0.02
- Relative amplitude, Ch from bl W12 ([3]; 5 mg/day with donepezil): −0.08
- Relative amplitude, significance (unlabelled line under Ch from bl W12) ([3]; 5 mg/day with donepezil): 0.0015
- Sleep efficiency, Ch from bl W2 ([3]; 5 mg/day with donepezil): −1.82%
- Sleep efficiency, Ch from bl W12 ([3]; 5 mg/day with donepezil): −2.26%
- Sleep efficiency, significance (unlabelled line under Ch from bl W12) ([3]; 5 mg/day with donepezil): <.0001
- Sleep fragmentation, Ch from bl W2 ([3]; 5 mg/day with donepezil): 3.57
- Sleep fragmentation, Ch from bl W12 ([3]; 5 mg/day with donepezil): 5.83
- Sleep fragmentation, significance (unlabelled line under Ch from bl W12) ([3]; 5 mg/day with donepezil): 0.0005
- Total sleep time, Ch from bl W2 ([3]; 5 mg/day with donepezil): −0.11 h.min
- Total sleep time, Ch from bl W12 ([3]; 5 mg/day with donepezil): −0.05 h.min
- Wake after sleep onset, Ch from bl W2 ([3]; 5 mg/day with donepezil): 0.08 h.min
- Wake after sleep onset, Ch from bl W12 ([3]; 5 mg/day with donepezil): 0.17 h.min
- Wake after sleep onset, significance (unlabelled line under Ch from bl W12) ([3]; 5 mg/day with donepezil): <.0001
- Interdaily variability, Ch from bl FUP ([3]; 5 mg/day with donepezil): 0.00
- Intradaily stability, Ch from bl FUP ([3]; 5 mg/day with donepezil): −0.03
- Mean awakening duration, Ch from bl FUP ([3]; 5 mg/day with donepezil): 0.12 min
- Number of awakenings, Ch from bl FUP ([3]; 5 mg/day with donepezil): 1.20
- Relative amplitude, Ch from bl FUP ([3]; 5 mg/day with donepezil): −0.02
- Sleep efficiency, Ch from bl FUP ([3]; 5 mg/day with donepezil): −0.89%
- Sleep fragmentation, Ch from bl FUP ([3]; 5 mg/day with donepezil): 3.08
- Total sleep time, Ch from bl FUP ([3]; 5 mg/day with donepezil): 0.1 h.min
- Wake after sleep onset, Ch from bl FUP ([3]; 5 mg/day with donepezil): 0.09 h.min
SMILES: CN1CCC[C@H]1CCNS(=O)(=O)c1ccc2c(c1)CN(CC1CCCCC1)CC2 [API, 2-(cyclohexylmethyl)-N-{2-[(2S)-1-methylpyrrolidin-2-yl]ethyl}-1,2,3,4-tetrahydroisoquinoline-7-sulfonamide difumarate monohydrate]
- ADAS-Cog score compared to placebo ([1]; 5 mg/day with donepezil, at follow-up): statistically significant improvement
- mean differences in the ADAS-Cog change score ([1]; after 24 weeks of treatment, with donepezil): not significantly different
- episodic memory difference vs placebo ([2]; 5 mg/day with donepezil, at 24 weeks): no longer significant
- power of attention vs placebo, tendency ([2]; 0.5 and 5 mg group at week 24): Tendencies for improvement versus placebo
- power of attention change from baseline vs placebo ([2]; all dose groups, week 8 or week 24, mITT): no significant difference
- CDR-S measure of working memory ([2]; week 24, with donepezil): not significantly modified
- CDR-S other measures of attention/speed of response ([2]; week 24, with donepezil): not significantly modified
- sleep quality assessed by wake after sleep onset (WASO) over placebo ([3]; 2 mg and 5 mg groups, from week 12): dose-dependent worsening of sleep quality
